# “And” between values parts separate entries of the source, which are not always exact repeats. Equal values may be shown once.
# What was measured:
# [1] = tested on: Cercospora beticola (strain E897); test: Anti-fungal activity against foliar disease: in vivo test on sugarbeet plants; conditions: foliar spray one day prior to inoculation
# [2] = tested on: Venturia inaegualis MUCL 15927; format: cell-based
# [3] = tested on: Septoria nodorum MUCL 30111; format: cell-based
# [4] = tested on: Sclerotinia sclerotianum MUCL 30163; format: cell-based
# [5] = tested on: Trichoderma hamatum MUCL 29736; format: cell-based
# [6] = tested on: Fusarium oxysporum f.sp. pisi IMI 236441; format: cell-based
# [7] = tested on: Fusarium culmorum IMI 180420; format: cell-based
# [8] = tested on: Rhizoctonia solani CBS 207-84; format: cell-based
# [9] = tested on: Cercospora beticola strain K897; format: cell-based
# [10] = tested on: Bacillus megaterium ATCC 13632; format: cell-based
# [11] = tested on: Agrobacterium tumefaciens C58, Alcaligenes eutrophus, Azospirillum brasilense Sp7, Bacillus megaterium ATCC 13632, Erwinia carotovora strain 3912, Escherichia …; format: cell-based
# plant pathogenic fungi = format: cell-based
# F culmorum and T hamatum = format: cell-based, Fusarium culmorum, Trichoderma hamatum
# Description: Antifungal activity was measured by microspectrophotometry as previously described (Broekaert, 1990, FEMS Microbiol Lett, 69:55-60). Routinely, tests were performed with 20 μl of a (filter-sterilized) test solution and 80 μl of a suspension of fungal spores (2×10^4 spores/ml) in half strength potato dextrose broth (1/2 PDB). Some tests were performed using a suspension of mycelium fragments in a synthetic growth medium. […] Control microcultures contained 20 μl of sterile distilled water and 80 μl of the fungal suspension.
# Unless otherwise stated the test organism was Fusarium culmorum (strain IMI 180420) and incubation was done at 25° C. for 48 hours. Percent growth inhibition is defined as 100 times the ratio of the corrected absorbance of the control microculture minus the corrected absorbance of the test microculture over the corrected absorbance at 595 nm of the control microculture. The corrected absorbance values equal the absorbance at 595 nm of the culture measured after 48 hours minus the absorbance at 595 nm measured after 30 min.
# The effect of ions on the antifungal activity of the Rs-AFPs and Rs-nsLTP was examined in more detail. […] The reference medium was the synthetic growth medium described in Example 1 which contains a total of 2.5 mM monovalent cations and 0.1 mM divalent cations. […]
Molecule,concentration giving 50% control of the disease [1],IC50 [2],IC50 [3],IC50 [4],IC50 [5],IC50 [6],IC50 [7],antifungal activity of the reversed-phase HPLC peak in medium A and medium B [7],IC50 [8],IC50 [9],concentration causing 50% inhibition of growth [10],effect on the other bacteria [11],fungi inhibited by more than 50% at concentrations below 100 μg/ml (plant pathogenic fungi),effect of Ca2+ on antifungal activity (F culmorum and T hamatum; CaCl2 at 5 mM),effect of K+ on antifungal activity (F culmorum and T hamatum; KCl at up to 50 mM)
"CCCCC(O)(Cn1cncn1)c1ccc(Cl)cc1Cl (stereo not shown) [hexaconazole, reference compound]",approximately 7 μM,,,,,,,,,,,,,,
"Rs-AFP2: antifungal protein from Raphanus sativus (radish) seeds, oligomeric, identical 5 kDa subunits, highly basic (QKLCQRPSGTWSGVCGNNNACKNQCIRLEKARHGSCNYVFPAHKCICYFPC; UniProt P30230 30-80, looked up)",approximately 15 μM,25 μg/m1 and >50 μg/m1,15 μg/m1 and 20 μg/m1,>100 μg/m1,2 µg/mL,2 μg/m1,2 µg/mL and 5 µg/mL,active in both medium A and medium B,>100 μg/m1,2 μg/m1 and 3 μg/m1,200 µg/mL,no effect,11 out of 18,varied from a slight increase in IC50 for F culmorum to complete inactivation for T hamatum,did not affect the antifungal activity

# From patent US20010014732A1, “Biocidal proteins” (ZENECA Limited, priority 1991, published 2001)
